Results reported in US10131652B2, “Pyrimidinyloxy benzene derivatives as herbicides” (E. I. DU PONT DE NEMOURS AND COMPANY, priority 2014, dated 2018).

Columns and labels:
Type in all cases: in vivo
wild oat (Avena fatua) = experiment: Test D postemergence plant response; conditions: for Oat, Wild plant response rating: scale 0 to 100 (0 no effect, 100 complete control); for Plant response rating, Oat, Wild: scale 0 to 100, 0 no effect, 100 complete control
How it was run: (§1)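 Visual scoring from 0 (no effect) to 100 (complete control), relative to controls, 13–15 days after treatment in the greenhouse. Compounds were applied postemergence at the 1- to 4-leaf stage (2–18 cm) to potted plants in peat-based medium.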

[1] = tested on: chickweed (common chickweed, Stellaria media); experiment: Test D postemergence plant response; conditions: for Chickweed plant response rating: scale 0 to 100 (0 no effect, 100 complete control); for Plant response rating, Chickweed: scale 0 to 100, 0 no effect, 100 complete control
How it was run: as §1

kochia (Kochia scoparia) = experiment: Test D postemergence plant response; conditions: for Kochia plant response rating: scale 0 to 100 (0 no effect, 100 complete control); for Plant response rating, Kochia: scale 0 to 100, 0 no effect, 100 complete control
How it was run: as §1

soybean (Glycine max) = experiment: Test D pre-/postemergence plant response
How it was run: (§2)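 Seeds were planted in a loam and sand blend and sprayed preemergence. In parallel, seedlings grown in peat moss/vermiculite medium were sprayed postemergence at 2 to 18 cm height. Both used a surfactant-containing non-phytotoxic solvent. Greenhouse ratings at 13 to 15 days used a 0–100 control scale.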

[2] = tested on: oilseed rape (Brassica napus); experiment: Test D pre-/postemergence plant response
How it was run: as §2

[3] = tested on: velvetleaf (Abutilon theophrasti); experiment: Test D pre-/postemergence plant response
How it was run: as §2

[4] = tested on: johnsongrass (Sorghum halepense); experiment: Test D pre-/postemergence plant response
How it was run: as §2

[5] = tested on: large (Lg) crabgrass (Digitaria sanguinalis); experiment: Test D pre-/postemergence plant response
How it was run: as §2

[6] = tested on: winter wheat (Triticum aestivum); experiment: Test D pre-/postemergence plant response
How it was run: as §2

[7] = tested on: yellow nutsedge (Cyperus esculentus); experiment: Test D pre-/postemergence plant response
How it was run: as §2

[8] = tested on: ducksalad (Heteranthera limosa); experiment: Test C flooded paddy test plant response; conditions: Flood, 250 g ai/ha; scale of 0 to 100 where 0 is no effect and 100 is complete control; 13 to 15 days
How it was run: (§3)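 Water-applied treatment: compounds go directly into floodwater standing 3 cm over the soil of pots holding 2-leaf-stage plants. Depth is kept constant; plants stay in a greenhouse 13 to 15 days before visual comparison with controls on a 0–100 scale.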

rice (Oryza sativa) = experiment: Test C flooded paddy test plant response; conditions: Flood, 250 g ai/ha; scale of 0 to 100 where 0 is no effect and 100 is complete control; 13 to 15 days
How it was run: as §3

[9] = tested on: barnyardgrass (Echinochloa crus-galli); experiment: Test C flooded paddy test plant response; conditions: Flood, 250 g ai/ha; scale of 0 to 100 where 0 is no effect and 100 is complete control; 13 to 15 days
How it was run: as §3

[10] = tested on: small-flower umbrella sedge (Cyperus difformis); experiment: Test C flooded paddy test plant response; conditions: Flood, 250 g ai/ha; scale of 0 to 100 where 0 is no effect and 100 is complete control; 13 to 15 days
How it was run: as §3

[11] = Postemergence, 16 g ai/ha, scale 0 to 100 (0 no effect, 100 complete control)
[12] = Postemergence, 31 g ai/ha, scale 0 to 100 (0 no effect, 100 complete control)
[13] = Postemergence, 62 g ai/ha, scale 0 to 100, 0 no effect, 100 complete control
[14] = Postemergence, 125 g ai/ha, scale 0 to 100, 0 no effect, 100 complete control
[15] = Preemergence, 16 g ai/ha, scale 0 to 100 (0 no effect, 100 complete control)
[16] = Preemergence, 31 g ai/ha, scale 0 to 100 (0 no effect, 100 complete control)
[17] = Preemergence, 62 g ai/ha, scale 0 to 100 (0 no effect, 100 complete control)

With Fc1ccc(Oc2ncc(Cl)cn2)c(-c2cc(C(F)F)on2)c1Cl [Compound 96] the “Oat, Wild plant response rating” value (wild oat (Avena fatua); 16 g ai/ha) was 15, the “Oat, Wild plant response rating” value (wild oat (Avena fatua); 31 g ai/ha) was 20 and the “Plant response rating, Oat, Wild” value (wild oat (Avena fatua); 62 g ai/ha) was 20. The “Plant response rating, Oat, Wild” value (wild oat (Avena fatua); 125 g ai/ha) was 20, the “Chickweed plant response rating” value ([1]; 16 g ai/ha) was 60 and the “Chickweed plant response rating” value ([1]; 31 g ai/ha) was 85. For the same molecule, the “Plant response rating, Chickweed” value ([1]; 62 g ai/ha) was 90, the “Plant response rating, Chickweed” value ([1]; 125 g ai/ha) was 98 and the “Kochia plant response rating” value (kochia (Kochia scoparia); 16 g ai/ha) was 25. For the same molecule, the “Kochia plant response rating” value (kochia (Kochia scoparia); 31 g ai/ha) was 60, the “Plant response rating, Kochia” value (kochia (Kochia scoparia); 62 g ai/ha) was 85 and the “Plant response rating, Kochia” value (kochia (Kochia scoparia); 125 g ai/ha) was 100. For the same molecule, the “Soybean plant response rating” value (soybean (Glycine max); [11]) was 15, the “Soybean plant response rating” value (soybean (Glycine max); [12]) was 50 and the “Plant response rating, Soybean” value (soybean (Glycine max); [13]) was 55. For the same molecule, the “Plant response rating, Soybean” value (soybean (Glycine max); [14]) was 35, the “Oilseed Rape plant response rating” value [2, 11] was 40 and the “Oilseed Rape plant response rating” value [2, 12] was 45. For the same molecule, the “Plant response rating, Oilseed Rape” value [2, 13] was 65, the “Plant response rating, Oilseed Rape” value [2, 14] was 65 and the “Velvetleaf plant response rating” value [3, 11] was 20. The “Velvetleaf plant response rating” value [3, 12] was 35, the “Plant response rating, Velvetleaf” value [3, 13] was 35 and the “Plant response rating, Velvetleaf” value [3, 14] was 35. The “Johnsongrass plant response rating” value [4, 11] was 0, the “Johnsongrass plant response rating” value [4, 12] was 0 and the “Plant response rating, Johnsongrass” value [4, 13] was 5. The “Plant response rating, Johnsongrass” value [4, 14] was 10, the “Crabgrass, Large plant response rating” value [5, 11] was 5 and the “Crabgrass, Large plant response rating” value [5, 12] was 5. The “Plant response rating, Crabgrass, Large” value [5, 13] was 5, the “Plant response rating, Crabgrass, Large” value [5, 14] was 10 and the “Wheat plant response rating” value [6, 11] was 0. The “Wheat plant response rating” value [6, 12] was 0, the “Plant response rating, Wheat” value [6, 13] was 0 and the “Plant response rating, Wheat” value [6, 14] was 10. For the same molecule, the “Nutsedge, Yellow plant response rating” value [7, 11] was 0, the “Nutsedge, Yellow plant response rating” value [7, 12] was 5 and the “Plant response rating, Nutsedge, Yellow” value [7, 13] was 5. For the same molecule, the “Plant response rating, Nutsedge, Yellow” value [7, 14] was 5, the “Ducksalad plant response rating” value [8] was 90 and the “Rice plant response rating” value (rice (Oryza sativa)) was 30. For the same molecule, the “Barnyardgrass plant response rating” value [9] was 15 and the “Sedge, Umbrella plant response rating” value [10] was 100.
In the case of Fc1ccc(Oc2ncc(Cl)cn2)c(-c2cc(C(F)F)on2)c1F [Compound 113], the “Oat, Wild plant response rating” value (wild oat (Avena fatua); 16 g ai/ha) is reported as 10, the “Oat, Wild plant response rating” value (wild oat (Avena fatua); 31 g ai/ha) is reported as 15 and the “Plant response rating, Oat, Wild” value (wild oat (Avena fatua); 62 g ai/ha) is reported as 10. For the same molecule, the “Plant response rating, Oat, Wild” value (wild oat (Avena fatua); 125 g ai/ha) was 25, the “Chickweed plant response rating” value ([1]; 16 g ai/ha) was 70 and the “Chickweed plant response rating” value ([1]; 31 g ai/ha) was 85. For the same molecule, the “Plant response rating, Chickweed” value ([1]; 62 g ai/ha) was 90, the “Plant response rating, Chickweed” value ([1]; 125 g ai/ha) was 95 and the “Kochia plant response rating” value (kochia (Kochia scoparia); 16 g ai/ha) was 90. The “Kochia plant response rating” value (kochia (Kochia scoparia); 31 g ai/ha) was 100, the “Plant response rating, Kochia” value (kochia (Kochia scoparia); 62 g ai/ha) was 100 and the “Plant response rating, Kochia” value (kochia (Kochia scoparia); 125 g ai/ha) was 100. The “Soybean plant response rating” value (soybean (Glycine max); [11]) was 80, the “Soybean plant response rating” value (soybean (Glycine max); [12]) was 55 and the “Plant response rating, Soybean” value (soybean (Glycine max); [13]) was 65. The “Plant response rating, Soybean” value (soybean (Glycine max); [14]) was 75, the “Plant response rating (scale 0 to 100), Soybean” value (soybean (Glycine max); Preemergence, 125 g ai/ha) was 80 and the “Plant response rating, Soybean” value (soybean (Glycine max); [15]) was 35. The “Plant response rating, Soybean” value (soybean (Glycine max); [16]) was 40, the “Plant response rating, Soybean” value (soybean (Glycine max); [17]) was 90 and the “Oilseed Rape plant response rating” value [2, 11] was 80. The “Oilseed Rape plant response rating” value [2, 12] was 50, the “Plant response rating, Oilseed Rape” value [2, 13] was 90 and the “Plant response rating, Oilseed Rape” value [2, 14] was 90. For the same molecule, the “Plant response rating (scale 0 to 100), Oilseed Rape” value ([2]; Preemergence, 125 g ai/ha) was 100, the “Plant response rating, Oilseed Rape” value [2, 15] was 98 and the “Plant response rating, Oilseed Rape” value [2, 16] was 100. The “Plant response rating, Oilseed Rape” value [2, 17] was 100, the “Velvetleaf plant response rating” value [3, 11] was 60 and the “Velvetleaf plant response rating” value [3, 12] was 60. For the same molecule, the “Plant response rating, Velvetleaf” value [3, 13] was 70, the “Plant response rating, Velvetleaf” value [3, 14] was 70 and the “Plant response rating (scale 0 to 100), Velvetleaf” value ([3]; Preemergence, 125 g ai/ha) was 100. The “Plant response rating, Velvetleaf” value [3, 15] was 70, the “Plant response rating, Velvetleaf” value [3, 16] was 85 and the “Plant response rating, Velvetleaf” value [3, 17] was 100. The “Johnsongrass plant response rating” value [4, 11] was 5, the “Johnsongrass plant response rating” value [4, 12] was 5 and the “Plant response rating, Johnsongrass” value [4, 13] was 5. For the same molecule, the “Plant response rating, Johnsongrass” value [4, 14] was 10, the “Plant response rating (scale 0 to 100), Johnsongrass” value ([4]; Preemergence, 125 g ai/ha) was 100 and the “Plant response rating, Johnsongrass” value [4, 15] was 10. For the same molecule, the “Plant response rating, Johnsongrass” value [4, 16] was 70, the “Plant response rating, Johnsongrass” value [4, 17] was 90 and the “Crabgrass, Large plant response rating” value [5, 11] was 10. For the same molecule, the “Crabgrass, Large plant response rating” value [5, 12] was 20, the “Plant response rating, Crabgrass, Large” value [5, 13] was 25 and the “Plant response rating, Crabgrass, Large” value [5, 14] was 25. For the same molecule, the “Plant response rating (scale 0 to 100), Crabgrass, Large” value ([5]; Preemergence, 125 g ai/ha) was 100, the “Plant response rating, Crabgrass, Large” value [5, 15] was 98 and the “Plant response rating, Crabgrass, Large” value [5, 16] was 100. The “Plant response rating, Crabgrass, Large” value [5, 17] was 100, the “Wheat plant response rating” value [6, 11] was 0 and the “Wheat plant response rating” value [6, 12] was 0. For the same molecule, the “Plant response rating, Wheat” value [6, 13] was 5, the “Plant response rating, Wheat” value [6, 14] was 5 and the “Plant response rating (scale 0 to 100), Wheat” value ([6]; Preemergence, 125 g ai/ha) was 20. The “Plant response rating, Wheat” value [6, 15] was 0, the “Plant response rating, Wheat” value [6, 16] was 5 and the “Plant response rating, Wheat” value [6, 17] was 10. For the same molecule, the “Nutsedge, Yellow plant response rating” value [7, 11] was 5, the “Nutsedge, Yellow plant response rating” value [7, 12] was 5 and the “Plant response rating, Nutsedge, Yellow” value [7, 13] was 5. The “Plant response rating, Nutsedge, Yellow” value [7, 14] was 15, the “Plant response rating (scale 0 to 100), Nutsedge, Yellow” value ([7]; Preemergence, 125 g ai/ha) was 60 and the “Plant response rating, Nutsedge, Yellow” value [7, 15] was 0. For the same molecule, the “Plant response rating, Nutsedge, Yellow” value [7, 16] was 10, the “Plant response rating, Nutsedge, Yellow” value [7, 17] was 15 and the “Ducksalad plant response rating” value [8] was 95. The “Rice plant response rating” value (rice (Oryza sativa)) was 15, the “Barnyardgrass plant response rating” value [9] was 0 and the “Sedge, Umbrella plant response rating” value [10] was 95.
